According to paper PMC4195943, “A novel small-molecule MRCK inhibitor blocks cancer cell invasion” (Cell Communication and Signaling : CCS, 2014):

How the values were obtained:
SCC12 cells [1] = assay: Alamar Blue cell viability, SCC12 cells; type: cell-based, human; conditions: 2 μM, 24 hours
Protocol: (§1) All results are shown as mean ± standard error of n = 3 independent replicates. […] Readings were compared to the Alamar Blue metabolism in DMSO treated cells that were used as the viability standard of 100% for each replicate experiment. […] (F) Number of invading cells was determined in 5 random fields for each condition for each separate replicate experiment. All results are shown as mean ± standard error of n ≥ 3 independent replicates.
(§2) MDA MB 231 or SCC12 cells were plated in a 96 well plate and cultured for 24 hours. […] Pictures were taken every 3 hours and confluence was measured using the IncuCyte analysis software. AlamarBlue (Invitrogen, DAL 1025) was added to the medium and the cells were cultured for an additional day. Absorbances at 570 nm and at 600 nm were measured to assess cell health.

MDA-MB-231 cells = assay: Matrigel invasion (scratch wound closure, Incucyte) of MDA-MB-231 cells; type: cell-based, human
Protocol: (§3) (A) MDA-MB-231 human breast cancer cells were plated in 96 well plates, then 24 hours later a ~800 μm scratch wound was created. […] All results are shown as mean ± standard error of n ≥ 4 independent replicates. […] Readings were compared to the Alamar Blue metabolism in DMSO treated cells that were used as the viability standard of 100% for each replicate experiment. All results are shown as mean ± standard error of 3 independent replicates.
(§4) MDA-MB-231 cells were plated at 30,000 cells per well in Image Lock 96 well plates (Essen BioScience) in 100 μL complete DMEM medium and after allowing cells to settle for 20 min were incubated overnight at 37°C in 5% CO2 in a humidified incubator. Matrigel (BD Biosciences) was thawed overnight at 4°C, diluted 1:1 with PBS and 100 μL pipetted over cells that had been scratched with the WoundMaker tool (Essen BioScience). Plates were incubated for 1 h, then appropriately diluted drugs added in 100 μL media to achieve final concentrations. Plates were scanned with an Incucyte Zoom (Essen BioSciences) according to manufacturer’s instructions at 3 hour intervals. Cell viability was determined with AlamarBlue (Invitrogen, DAL 1025), which was added to the medium and cells cultured for 6 hours. Absorbances at 570 nm and at 600 nm were measured to assess metabolic activity.

MDA MB 231 cells = assay: Alamar Blue cell viability, MDA-MB-231 cells; type: cell-based, human; conditions: 24 hours
Protocol: as §3, §4, §2

MRCKβ = biological target: T1, MRCKβ (Homo sapiens, UniProt Q9Y5S2); assay: MLC phosphorylation in MDA-MB-231 cells expressing doxycycline-induced MRCKβ kinase domain (quantitative western blot); type: cell-based
T1 construct: The kinase domains of MRCKβ (1–473), ROCK1 (1–535) or ROCK2 (1–532) were gene synthesized; expressed in transfected cells; host or cells: MDA-MB-231 D3H2LN-Luc Tet3G cells, pTRE3G-MRCKβ (1–473)
T1 sequence (Q9Y5S2 1-473): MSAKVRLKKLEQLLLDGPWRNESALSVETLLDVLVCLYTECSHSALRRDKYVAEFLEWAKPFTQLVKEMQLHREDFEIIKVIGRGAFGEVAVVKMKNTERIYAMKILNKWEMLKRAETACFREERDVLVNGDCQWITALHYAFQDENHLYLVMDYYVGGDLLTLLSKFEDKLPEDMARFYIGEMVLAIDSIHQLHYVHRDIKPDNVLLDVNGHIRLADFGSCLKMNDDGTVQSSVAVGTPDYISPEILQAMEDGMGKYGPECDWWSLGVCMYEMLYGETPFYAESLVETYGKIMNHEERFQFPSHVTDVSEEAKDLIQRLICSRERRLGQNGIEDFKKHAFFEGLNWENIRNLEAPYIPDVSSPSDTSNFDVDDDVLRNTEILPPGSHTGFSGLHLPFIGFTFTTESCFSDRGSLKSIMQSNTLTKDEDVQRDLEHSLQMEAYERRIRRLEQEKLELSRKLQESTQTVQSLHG
Protocol: (A) MDA-MB-231 breast cancer cells expressing doxycycline inducible ROCK1, ROCK2 or MRCKβ kinase domains were established as indicated. Following treatment with doxycycline for 18 hours to induce expression, cell lysates were western blotted with antibodies as indicated.
MDA-MB-231 D3H2LN-Luc cells (Caliper LifeScience) were grown in MEM/EBSS (Hyclone) supplemented with 10% fetal bovine serum (FBS) (Gibco), 1 mM Sodium Pyruvate (Sigma) 2 mM L-glutamine (Gibco), 1× MEM non-essential amino acids (Gibco) plus penicillin-streptomycin (10 Units/ml and 10 μg/ml respectively) at 37°C in 5% CO2 in a humidified incubator. MDA-MB-231 D3H2LN-Luc TetOn MRCKβ, ROCK1 and ROCK2 selective cell lines were grown in the same media with 10% FBS replaced with 10% Tet System Approved FBS (Clontech).
The kinase domains of MRCKβ (1–473), ROCK1 (1–535) or ROCK2 (1–532) were gene synthesized (Genscript) and subcloned into pTRE3G (Clontech). MDA-MB-231 D3H2LN-Luc Tet3G cells were co-transfected with pTRE3G-MRCKβ (1–473), pTRE3G-ROCK1 (1–535) or pTRE3G-ROCK2 (1–532), together with a linear Pur^r-selection marker using Xfect transfection reagent according to manufacturer’s instructions. […] Each clone was treated with or without doxycycline (1 μg/ml) for 24 hours and kinase domain expression and activity determined by western blotting. […]

SCC12 cells [2] = assay: Organotypic collagen invasion of SCC12 cells; type: cell-based, human; conditions: 2 μM, ten days
Protocol: as §1
SCC12 invasion assays were performed essentially as described in [12]. HN-CAF cells were grown for 5 days in a Matrigel-collagen gel, covered with DMEM + 10%FBS medium, and allowed to remodel the matrix. The gel consisted of: 280 μL of DMEM + 10% FBS, 100 μL FBS, 20 μL 1 M Hepes pH 7.5 and approximately 200 μL of Matrigel (BD Biosciences, 354234), 400 μL of collagen type 1 (BD Biosciences, 354249) and 5×10^5 HN-CAF cells. Puromycin was subsequently added to the medium at 10 μg/ml for 3 days to remove HN-CAF cells. The gels were washed in SCC medium 3 times for 2 hours and SCC12 cells were plated on the surface of the gel and left to adhere overnight. […] The gels were fixed overnight in 4% PFA and 1% glutaraldehyde in PBS, washed in PBS and processed for histology.

SMILES | cell viability (Alamar Blue metabolism) versus DMSO (SCC12 cells [1]) | inhibition of MDA-MB-231 invasion (MDA-MB-231 cells; 10 μM) | EC50 (MDA-MB-231 cells; Homo sapiens, MDA-MB-231, 24 h, read-out: EC50, inhibition of Matrigel invasion (wound closure)) [µM] | inhibition at 1 µM (MDA-MB-231 cells; Homo sapiens, MDA-MB-231, 1 μM) [%] | effect on cell viability (MDA MB 231 cells; 1 μM) | EC50 (MDA MB 231 cells; Homo sapiens, MDA-MB-231, read-out: EC50, cell viability (Alamar Blue metabolism)) [µM] | inhibition of MLC phosphorylation induced by MRCKβ (MRCKβ; 3 μM) | SCC12 invasion into three dimensional collagen matrix (SCC12 cells [2]) | inhibition of wound closure (MDA-MB-231 cells; 10 μM) | inhibition of invasion (MDA-MB-231 cells; 30 μM, 24 h) [%] | effect on cell viability (MDA MB 231 cells; 10 μM) | inhibition of MRCKβ activity (MLC phosphorylation) (MRCKβ; highest 30 μM concentration) [%]
O=C(Nc1cn[nH]c1-c1ccccn1)c1nn(C2CCNCC2)cc1Cl [BDP5290, 4-chloro-1-(4-piperidyl)-N-[5-(2-pyridyl)-1H-pyrazol-4-yl]pyrazole-3-carboxamide] | did not differ from DMSO standard values | virtually complete inhibition | 0.44 | > 60 | no effect on cell viability | > 10 | completely inhibited | profound effect | – | – | – | –
C[C@@H](N)[C@H]1CC[C@H](C(=O)Nc2ccncc2)CC1 [Y27632, reference compound] | did not differ from DMSO standard values | – | – | – | – | – | – | did not significantly affect | ~ 40% | ≤ 50 | no effect on cell viability | ≤ 50
